Measured values reported in patent US6410558B1, “Fungicides for the control of take-all disease of plants” (Monsanto Technology LLC, priority 1991, dated 2002).

What was measured:
[1] = system: Gaeumannomyces graminis var. tritici (Ggt); experiment: In vitro Assay: mycelial growth of Ggt on minimal media agar plates containing test compound; format: cell-based; conditions: dark, 19-20° C., 4 to 5 days, diameter of mycelial growth; for inhibition at 0.1 ppm / inhibition at 1 ppm / inhibition at 10 ppm: Gaeumannomyces graminis; for inhibition at 0.1 ppm: read-out: In vitro (ppm) 0.1, Percent Inhibition; for inhibition at 1 ppm: read-out: In vitro (ppm) 1, Percent Inhibition; for inhibition at 10 ppm: read-out: In vitro (ppm) 10, Percent Inhibition
In short: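 Ggt mycelial diameter read after 4 to 5 days in darkness at 19-20° C, from three 4-mm plugs placed on Czapek Dox minimal agar containing test compound delivered in acetone. Inhibition expressed as percent versus untreated plates, plug size (4 mm) subtracted from both.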

[2] = system: Ggt; experiment: In vivo Assay: control of Ggt on wheat grown in pots of Ggt-infested soil, root disease rating; parameters: species or system Gaeumannomyces graminis var. tritici; conditions: 0.5 mg active ingredient per pot, 'Bergen' or 'Anza' wheat in Ggt-infested soil, after four weeks, vs untreated control; for pest or weed control at 0.5 mg/pot: Gaeumannomyces graminis, 672 h, read-out: In vivo, percent disease control
In short: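 Wheat ('Bergen' or 'Anza') seeds in soil infested with Ggt-colonised oats (4% v/v) treated at 0.5 mg active ingredient per pot in acetone/water with Tween 20; five pots per treatment. After four weeks, seminal roots rated 0–5; trimmed mean of three replicates converted to percent disease control versus untreated.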

C=C[Si](C)(c1ccccc1)c1cccc(Cl)c1C(=O)NCC (centres unmarked) [Example 202, 2-Chloro-6-(ethenylmethylphenylsilyl)-N-ethylbenzamide]
inhibition at 0.1 ppm ([1]; 0.1 ppm in minimal media agar): 33% | inhibition at 1 ppm ([1]; 1 ppm in minimal media agar): 58% | inhibition at 10 ppm ([1]; 10 ppm in minimal media agar): 88% | pest or weed control at 0.5 mg/pot [2]: 3%

CCCN(C(=O)c1c(Cl)cccc1[Si](C)(C)C)C(C)C [Example 95, 2-Chloro-N-(1-methylethyl)-N-propyl-6-(trimethylsilyl)benzamide]
inhibition at 0.1 ppm ([1]; 0.1 ppm in minimal media agar): < 0% | inhibition at 1 ppm ([1]; 1 ppm in minimal media agar): 62% | inhibition at 10 ppm ([1]; 10 ppm in minimal media agar): 100% | pest or weed control at 0.5 mg/pot [2]: 63%

CCNC(=O)c1c(Cl)ccc(Cl)c1[Si](C)(C)C [Example 200, 3,6-Dichloro-N-ethyl-2-(trimethylsilyl)benzamide]
inhibition at 0.1 ppm ([1]; 0.1 ppm in minimal media agar): 92% | inhibition at 1 ppm ([1]; 1 ppm in minimal media agar): 100% | inhibition at 10 ppm ([1]; 10 ppm in minimal media agar): 100% | pest or weed control at 0.5 mg/pot [2]: 65%

CCN(C(=O)c1c(Cl)cccc1[Si](C)(C)C)C(OC)C(C)(C)C (centres unmarked) [Example 201, 2-Chloro-N-ethyl-N-(1-methoxy-2,2-dimethylpropyl)-6-(trimethylsilyl)benzamide]
inhibition at 0.1 ppm ([1]; 0.1 ppm in minimal media agar): 31% | inhibition at 1 ppm ([1]; 1 ppm in minimal media agar): 50% | inhibition at 10 ppm ([1]; 10 ppm in minimal media agar): 100% | pest or weed control at 0.5 mg/pot [2]: 65%

CCNC(=O)c1c(Cl)cccc1[Si](C)(C)C [Example 45, 2-Chloro-N-ethyl-6-(trimethylsilyl)benzamide]
inhibition at 0.1 ppm ([1]; 0.1 ppm in minimal media agar): 100% | inhibition at 1 ppm ([1]; 1 ppm in minimal media agar): 100% | inhibition at 10 ppm ([1]; 10 ppm in minimal media agar): 100% | pest or weed control at 0.5 mg/pot [2]: 97%

CCNC(=O)c1cccc(F)c1[Si](C)(C)C [Example 12, N-Ethyl-3-fluoro-2-(trimethylsilyl)benzamide]
inhibition at 0.1 ppm ([1]; 0.1 ppm in minimal media agar): 29% | inhibition at 1 ppm ([1]; 1 ppm in minimal media agar): 83% | inhibition at 10 ppm ([1]; 10 ppm in minimal media agar): 100% | pest or weed control at 0.5 mg/pot [2]: 95%

CCNC(=O)c1sc(Cl)cc1[Si](C)(C)C [Example 254, 5-Chloro-N-ethyl-3-(trimethylsilyl)-2-thiophenecarboxamide]
inhibition at 0.1 ppm ([1]; 0.1 ppm in minimal media agar): 97% | inhibition at 1 ppm ([1]; 1 ppm in minimal media agar): 97% | inhibition at 10 ppm ([1]; 10 ppm in minimal media agar): 100% | pest or weed control at 0.5 mg/pot [2]: 40%

CCN(CC)C(=O)c1c(Cl)cccc1[Si](C)(C)CCl [Example 69, N,N-Diethyl-2-chloro-6-[(chloromethyl)dimethylsilyl]benzamide]
inhibition at 0.1 ppm ([1]; 0.1 ppm in minimal media agar): 51% | inhibition at 1 ppm ([1]; 1 ppm in minimal media agar): 81% | inhibition at 10 ppm ([1]; 10 ppm in minimal media agar): 100% | pest or weed control at 0.5 mg/pot [2]: 67%

CCNC(=O)c1c(C)cccc1C(C)(C)C [Example 8, 2-(1,1-Dimethylethyl)-N-ethyl-6-methylbenzamide]
inhibition at 0.1 ppm ([1]; 0.1 ppm in minimal media agar): 19% | inhibition at 1 ppm ([1]; 1 ppm in minimal media agar): 97% | inhibition at 10 ppm ([1]; 10 ppm in minimal media agar): 100% | pest or weed control at 0.5 mg/pot [2]: 85%

CCNC(=O)c1c(C)cccc1N(C)C(C)(C)C [Example 191, N-Ethyl-2-[(1,1-dimethylethyl)methylamino]-6-methylbenzamide]
inhibition at 0.1 ppm ([1]; 0.1 ppm in minimal media agar): 60% | inhibition at 1 ppm ([1]; 1 ppm in minimal media agar): 88% | inhibition at 10 ppm ([1]; 10 ppm in minimal media agar): 88% | pest or weed control at 0.5 mg/pot [2]: 88%

CCNC(=O)c1c([Si](C)(C)C)ccc(C=O)c1Cl [Example 223, 2-Chloro-N-ethyl-3-formyl-6-(trimethylsilyl)benzamide]
inhibition at 0.1 ppm ([1]; 0.1 ppm in minimal media agar): 48% | inhibition at 1 ppm ([1]; 1 ppm in minimal media agar): 93% | inhibition at 10 ppm ([1]; 10 ppm in minimal media agar): 96% | pest or weed control at 0.5 mg/pot [2]: 82%

CCNC(=O)c1c(Cl)cccc1[Si](C)(C)CCl [Example 83, N-Ethyl-2-chloro-6-[(chloromethyl)dimethylsilyl]benzamide]
inhibition at 0.1 ppm ([1]; 0.1 ppm in minimal media agar): 100% | inhibition at 1 ppm ([1]; 1 ppm in minimal media agar): 100% | inhibition at 10 ppm ([1]; 10 ppm in minimal media agar): 100% | pest or weed control at 0.5 mg/pot [2]: 99%

CCN(CC)C(=O)c1c(Cl)cccc1[Si](C)(C)c1ccccc1 [Example 67, N,N-Diethyl-2-chloro-6-(dimethylphenylsilyl)benzamide]
inhibition at 0.1 ppm ([1]; 0.1 ppm in minimal media agar): < 0% | inhibition at 1 ppm ([1]; 1 ppm in minimal media agar): 19% | inhibition at 10 ppm ([1]; 10 ppm in minimal media agar): 100% | pest or weed control at 0.5 mg/pot [2]: < 0%

C[Si](C)(C)c1cccc(Cl)c1C(=O)Nc1ccccc1[N+](=O)[O-] [Example 160, 2-Chloro-N-(2-nitrophenyl)-6-(trimethylsilyl)benzamide]
inhibition at 0.1 ppm ([1]; 0.1 ppm in minimal media agar): 17% | inhibition at 1 ppm ([1]; 1 ppm in minimal media agar): 63% | inhibition at 10 ppm ([1]; 10 ppm in minimal media agar): 88% | pest or weed control at 0.5 mg/pot [2]: 5%

CC(C)NC(=O)c1c(Cl)cccc1[Si](C)(C)C [Example 21, 2-Chloro-N-(1-methylethyl)-6-(trimethylsilyl) benzarnide]
In vitro (ppm) 0.1, Percent Inhibition ([1]; 0.1 ppm in minimal media agar): 100% | In vitro (ppm) 1, Percent Inhibition ([1]; 1 ppm in minimal media agar): 100% | In vitro (ppm) 10, Percent Inhibition ([1]; 10 ppm in minimal media agar): 100% | In vivo, percent disease control [2]: 100%

CCN(C(=O)c1ccccc1[Si](C)(C)C)C(OC)C(C)(C)C (centres unmarked) [Example 187, N-Ethyl-N-(1-methoxy-2,2-dimethylpropyl)-2-(trimethylsilyl)benzamide]
inhibition at 0.1 ppm ([1]; 0.1 ppm in minimal media agar): 13% | inhibition at 1 ppm ([1]; 1 ppm in minimal media agar): 27% | inhibition at 10 ppm ([1]; 10 ppm in minimal media agar): 97% | pest or weed control at 0.5 mg/pot [2]: 24%

C[Si](C)(C)c1cccc(Cl)c1C(=O)NCC(F)(F)F [Example 25, 2-Chloro-N-(2,2,2-trifluoro-ethyl)-6-(trimethylsilyl)-benzamide]
inhibition at 0.1 ppm ([1]; 0.1 ppm in minimal media agar): 19% | inhibition at 1 ppm ([1]; 1 ppm in minimal media agar): 15% | inhibition at 10 ppm ([1]; 10 ppm in minimal media agar): 89% | pest or weed control at 0.5 mg/pot [2]: 56%

CCNC(=O)c1ccccc1[Si](C)(C)C [Example 49, N-Ethyl-2-(trimethylsilyl)benzamide]
inhibition at 0.1 ppm ([1]; 0.1 ppm in minimal media agar): 100% | inhibition at 1 ppm ([1]; 1 ppm in minimal media agar): 100% | inhibition at 10 ppm ([1]; 10 ppm in minimal media agar): 100% | pest or weed control at 0.5 mg/pot [2]: 97%

CCNC(=O)c1c(Cl)cccc1[Si](C)(C)C(C)C [Example 180, 2-Chloro-6-[dimethyl(1-methylethyl)silyl]-N-ethylbenzamide]
inhibition at 0.1 ppm ([1]; 0.1 ppm in minimal media agar): 85% | inhibition at 1 ppm ([1]; 1 ppm in minimal media agar): 82% | inhibition at 10 ppm ([1]; 10 ppm in minimal media agar): 90% | pest or weed control at 0.5 mg/pot [2]: 96%

CCCN(CCC)C(=O)c1ccccc1[Si](C)(C)C [Example 13, N,N-Dipropyl-2-(trimethylsilyl)benzamide]
inhibition at 0.1 ppm ([1]; 0.1 ppm in minimal media agar): 7% | inhibition at 1 ppm ([1]; 1 ppm in minimal media agar): 17% | inhibition at 10 ppm ([1]; 10 ppm in minimal media agar): 64% | pest or weed control at 0.5 mg/pot [2]: 13%

C[Si](C)(C)c1cccc(Cl)c1C(=O)Nc1ccccc1 [Example 16, 2-Chloro-N-phenyl-6-(trimethylsilyl)-benzamide]
inhibition at 0.1 ppm ([1]; 0.1 ppm in minimal media agar): 11% | inhibition at 1 ppm ([1]; 1 ppm in minimal media agar): 27% | inhibition at 10 ppm ([1]; 10 ppm in minimal media agar): 76% | pest or weed control at 0.5 mg/pot [2]: 3%

CCNC(=O)c1c([Si](C)(C)C)sc(C)c1C [Example 271, 4,5-Dimethyl-N-ethyl-2-(trimethylsilyl)-3-thiophenecarboxamide]
inhibition at 0.1 ppm ([1]; 0.1 ppm in minimal media agar): 95% | inhibition at 1 ppm ([1]; 1 ppm in minimal media agar): 100% | inhibition at 10 ppm ([1]; 10 ppm in minimal media agar): 100% | pest or weed control at 0.5 mg/pot [2]: 97%

CCC(C)NC(=O)c1c(Cl)cccc1[Si](C)(C)C (centres unmarked) [Example 28, 2-Chloro-N-(1-methylpropyl)-6-(trimethylsilyl)benzamide]
inhibition at 0.1 ppm ([1]; 0.1 ppm in minimal media agar): 60% | inhibition at 1 ppm ([1]; 1 ppm in minimal media agar): 100% | inhibition at 10 ppm ([1]; 10 ppm in minimal media agar): 100% | pest or weed control at 0.5 mg/pot [2]: 86%

CCN(CC)C(=O)c1c(CO)ccc(F)c1[Si](C)(C)C [Example 54, N,N-Diethyl-3-fluoro-6-(hydroxymethyl)-2-(trimethylsilyl)benzamide]
inhibition at 0.1 ppm ([1]; 0.1 ppm in minimal media agar): < 0% | inhibition at 1 ppm ([1]; 1 ppm in minimal media agar): 2% | inhibition at 10 ppm ([1]; 10 ppm in minimal media agar): 43% | pest or weed control at 0.5 mg/pot [2]: 52%

CCNC(=O)c1cc(N)ccc1[Si](C)(C)C [Example 217, 5-Amino-N-ethyl-2-(trimethylsilyl)benzamide]
inhibition at 0.1 ppm ([1]; 0.1 ppm in minimal media agar): 16% | inhibition at 1 ppm ([1]; 1 ppm in minimal media agar): 68% | inhibition at 10 ppm ([1]; 10 ppm in minimal media agar): 100% | pest or weed control at 0.5 mg/pot [2]: 0%

CCN(SC)C(=O)c1c(Cl)cccc1[Si](C)(C)C [Example 172, 2-Chloro-N-ethyl-N-(methylthio)-6-(trimethylsilyl)benzamide]
inhibition at 0.1 ppm ([1]; 0.1 ppm in minimal media agar): 94% | inhibition at 1 ppm ([1]; 1 ppm in minimal media agar): 100% | inhibition at 10 ppm ([1]; 10 ppm in minimal media agar): 100% | pest or weed control at 0.5 mg/pot [2]: 99%
